Positions of bridges follow the written chain, without caps; N, C: chain ends. Residues, ends and D or L forms follow the SMILES beside them.
How the values were obtained:
[1] = target: Small conductance calcium-activated potassium channel protein 2 (Rattus norvegicus) (UniProt P70604); assay: Inhibition of recombinant rat SK2 expressed in HEK293 cells at 10 nM and holding potential at 0 mV and ramp voltage from -100 to 100 mV by whole cell patch clamp method relative to control; type: cell-based
[2] = target: Small conductance calcium-activated potassium channel protein 3 (Homo sapiens, UniProt Q9UGI6); assay: Inhibition of recombinant human SK3 expressed in HEK293T cells at 10 nM and holding potential at 0 mV and ramp voltage from -100 to 100 mV by whole cell patch clamp method relative to control; type: cell-based; settings: HEK-293T
Chain of Small conductance calcium-activated potassium channel protein 3 (Q9UGI6 whole entry): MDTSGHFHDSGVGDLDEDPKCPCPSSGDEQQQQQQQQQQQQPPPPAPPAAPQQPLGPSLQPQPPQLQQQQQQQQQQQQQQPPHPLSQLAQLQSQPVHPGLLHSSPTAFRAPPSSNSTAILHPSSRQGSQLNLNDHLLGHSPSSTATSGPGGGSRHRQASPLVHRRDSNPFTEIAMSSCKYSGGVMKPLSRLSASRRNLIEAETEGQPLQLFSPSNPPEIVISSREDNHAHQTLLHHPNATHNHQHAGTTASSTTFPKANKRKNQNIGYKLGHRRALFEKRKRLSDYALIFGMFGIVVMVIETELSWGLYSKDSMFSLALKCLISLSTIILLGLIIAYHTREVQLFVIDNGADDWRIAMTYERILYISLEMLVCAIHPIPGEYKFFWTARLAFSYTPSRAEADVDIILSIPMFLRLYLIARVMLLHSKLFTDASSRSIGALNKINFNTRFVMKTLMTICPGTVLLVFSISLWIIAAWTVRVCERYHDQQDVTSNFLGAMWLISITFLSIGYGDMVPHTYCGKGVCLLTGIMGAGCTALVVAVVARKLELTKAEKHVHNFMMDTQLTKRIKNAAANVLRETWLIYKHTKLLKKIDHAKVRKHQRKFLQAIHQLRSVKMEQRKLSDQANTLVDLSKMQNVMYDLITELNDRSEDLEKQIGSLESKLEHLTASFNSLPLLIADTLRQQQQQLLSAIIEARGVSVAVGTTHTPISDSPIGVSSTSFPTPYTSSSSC

Chain of Small conductance calcium-activated potassium channel protein 2 (Rattus norvegicus) (P70604 whole entry): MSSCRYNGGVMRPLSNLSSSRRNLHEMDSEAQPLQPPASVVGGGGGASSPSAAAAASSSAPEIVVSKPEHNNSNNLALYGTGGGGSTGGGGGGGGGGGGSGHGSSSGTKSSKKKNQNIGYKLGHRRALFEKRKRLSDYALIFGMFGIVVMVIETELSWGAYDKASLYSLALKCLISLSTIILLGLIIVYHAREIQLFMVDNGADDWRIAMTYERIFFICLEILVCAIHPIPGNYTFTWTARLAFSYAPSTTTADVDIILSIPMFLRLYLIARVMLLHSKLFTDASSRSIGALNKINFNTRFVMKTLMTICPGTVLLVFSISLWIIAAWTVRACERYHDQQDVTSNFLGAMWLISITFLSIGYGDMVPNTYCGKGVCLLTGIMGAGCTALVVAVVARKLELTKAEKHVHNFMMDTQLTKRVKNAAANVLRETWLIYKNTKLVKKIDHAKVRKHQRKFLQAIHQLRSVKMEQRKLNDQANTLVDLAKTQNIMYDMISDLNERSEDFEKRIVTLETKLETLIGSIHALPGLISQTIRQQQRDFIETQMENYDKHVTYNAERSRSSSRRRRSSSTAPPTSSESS

| Compound | inhibition [1] [%] | inhibition [2] [%] |
| --- | --- | --- |
| CC[C@H](C)[C@@H]1NC(=O)[C@@H]2CSSC[C@H](NC(=O)[C@H](Cc3ccccc3)NC(=O)[C@H](C)N)C(=O)N[C@@H](CC(N)=O)C(=O)N[C@@H](CC(C)C)C(=O)N[C@@H](CCCNC(=N)N)C(=O)N[C@@H](CCCNC(=N)N)C(=O)N[C@H]3CSSC[C@H](NC(=O)[C@H](CCC(=O)O)NC(=O)[C@H](CCC(=O)O)NC(=O)CNC1=O)C(=O)N[C@@H](CCCCN)C(=O)N[C@H](C(=O)N[C@H](C(=O)N1CCC[C@H]1C(=O)N[C@@H](Cc1ccc(O)cc1)C(=O)O)C(C)C)CSSC[C@H](NC(=O)[C@H](CO)NC(=O)[C@H](CC(C)C)NC(=O)[C@H](CCC(=O)O)NC3=O)C(=O)N[C@@H](CCCNC(=N)N)C(=O)N[C@@H](CO)C(=O)N[C@@H](CC(C)C)C(=O)NCC(=O)N[C@@H](CC(C)C)C(=O)N[C@@H](CC(C)C)C(=O)NCC(=O)N[C@@H](CCC(=O)O)C(=O)N2 (H-AFCNLRRCELSCRSLGLLGECIGEECKCVPY-OH; disulfide 3-21, 8-26, 12-28) | > 85 | < 39 |
| CC[C@H](C)[C@@H]1NC(=O)[C@@H]2CSSC[C@H](NC(=O)[C@H](Cc3ccccc3)NC(=O)[C@H](C)N)C(=O)N[C@@H](CC(N)=O)C(=O)N[C@@H](CC(C)C)C(=O)N[C@@H](CCCNC(=N)N)C(=O)N[C@@H](CCCNC(=N)N)C(=O)N[C@H]3CSSC[C@H](NC(=O)[C@H](CCC(=O)O)NC(=O)[C@H](CCC(=O)O)NC(=O)CNC1=O)C(=O)N[C@@H](CCCCN)C(=O)N[C@H](C(=O)N[C@H](C(=O)N1CCC[C@H]1C(=O)N[C@@H](Cc1ccc(O)cc1)C(=O)N[C@@H](CC(N)=O)C(=O)O)C(C)C)CSSC[C@H](NC(=O)[C@H](CO)NC(=O)[C@H](CC(C)C)NC(=O)[C@H](CCC(=O)O)NC3=O)C(=O)N[C@@H](CCCNC(=N)N)C(=O)N[C@@H](CO)C(=O)N[C@@H](CC(C)C)C(=O)NCC(=O)N[C@@H](CC(C)C)C(=O)N[C@@H](CC(C)C)C(=O)NCC(=O)N[C@@H](CCCCN)C(=O)N2 (H-AFCNLRRCELSCRSLGLLGKCIGEECKCVPYN-OH; disulfide 3-21, 8-26, 12-28) | 40 | < 39 |
| CC[C@H](C)[C@@H]1NC(=O)[C@@H]2CSSC[C@H](NC(=O)[C@H](Cc3ccccc3)NC(=O)[C@H](C)N)C(=O)N[C@@H](CC(N)=O)C(=O)N[C@@H](CC(C)C)C(=O)N[C@@H](CCCNC(=N)N)C(=O)N[C@@H](CCCNC(=N)N)C(=O)N[C@H]3CSSC[C@H](NC(=O)[C@H](CCC(=O)O)NC(=O)[C@H](CCC(=O)O)NC(=O)CNC1=O)C(=O)N[C@@H](CCCCN)C(=O)N[C@H](C(=O)N[C@H](C(=O)N[C@@H](Cc1ccc(O)cc1)C(=O)N[C@@H](CC(N)=O)C(=O)O)C(C)C)CSSC[C@H](NC(=O)[C@H](CO)NC(=O)[C@H](CC(C)C)NC(=O)[C@H](CCC(=O)O)NC3=O)C(=O)N[C@@H](CCCNC(=N)N)C(=O)N[C@@H](CO)C(=O)N[C@@H](CC(C)C)C(=O)NCC(=O)N[C@@H](CC(C)C)C(=O)N[C@@H](CC(C)C)C(=O)NCC(=O)N[C@@H](CCCCN)C(=O)N2 (H-AFCNLRRCELSCRSLGLLGKCIGEECKCVYN-OH; disulfide 3-21, 8-26, 12-28) | 40 | < 39 |
| CC[C@H](C)[C@@H]1NC(=O)[C@@H]2CSSC[C@H](NC(=O)[C@H](Cc3ccccc3)NC(=O)[C@H](C)N)C(=O)N[C@@H](CC(N)=O)C(=O)N[C@@H](CC(C)C)C(=O)N[C@@H](CCCNC(=N)N)C(=O)N[C@@H](CCCNC(=N)N)C(=O)N[C@H]3CSSC[C@H](NC(=O)[C@H](CCC(=O)O)NC(=O)[C@H](CCC(=O)O)NC(=O)CNC1=O)C(=O)N[C@@H](CCC(=O)O)C(=O)N[C@H](C(=O)N[C@H](C(=O)N1CCC[C@H]1C(=O)N[C@@H](Cc1ccc(O)cc1)C(=O)O)C(C)C)CSSC[C@H](NC(=O)[C@H](CO)NC(=O)[C@H](CC(C)C)NC(=O)[C@H](CCC(=O)O)NC3=O)C(=O)N[C@@H](CCCNC(=N)N)C(=O)N[C@@H](CO)C(=O)N[C@@H](CC(C)C)C(=O)NCC(=O)N[C@@H](CC(C)C)C(=O)N[C@@H](CC(C)C)C(=O)NCC(=O)N[C@@H](CCCCN)C(=O)N2 (H-AFCNLRRCELSCRSLGLLGKCIGEECECVPY-OH; disulfide 3-21, 8-26, 12-28) | < 39 | 40 |
| CC[C@H](C)[C@@H]1NC(=O)[C@@H]2CSSC[C@H](NC(=O)[C@H](Cc3ccccc3)NC(=O)[C@H](C)N)C(=O)N[C@@H](CC(N)=O)C(=O)N[C@@H](CC(C)C)C(=O)N[C@@H](CCCNC(=N)N)C(=O)N[C@@H](CCCNC(=N)N)C(=O)N[C@H]3CSSC[C@H](NC(=O)[C@H](CCCCN)NC(=O)[C@H](CCC(=O)O)NC(=O)CNC1=O)C(=O)N[C@@H](CCCCN)C(=O)N[C@H](C(=O)N[C@H](C(=O)N1CCC[C@H]1C(=O)N[C@@H](Cc1ccc(O)cc1)C(=O)O)C(C)C)CSSC[C@H](NC(=O)[C@H](CO)NC(=O)[C@H](CC(C)C)NC(=O)[C@H](CCC(=O)O)NC3=O)C(=O)N[C@@H](CCCNC(=N)N)C(=O)N[C@@H](CO)C(=O)N[C@@H](CC(C)C)C(=O)NCC(=O)N[C@@H](CC(C)C)C(=O)N[C@@H](CC(C)C)C(=O)NCC(=O)N[C@@H](CCCCN)C(=O)N2 (H-AFCNLRRCELSCRSLGLLGKCIGEKCKCVPY-OH; disulfide 3-21, 8-26, 12-28) | < 39 | 40 |

Next, values leading:

| inhibition [1] [%] | inhibition [2] [%] | Compound |
| --- | --- | --- |
| < 39 | 40 | CC[C@H](C)[C@@H]1NC(=O)[C@@H]2CSSC[C@H](NC(=O)[C@H](Cc3ccccc3)NC(=O)[C@H](C)N)C(=O)N[C@@H](CC(N)=O)C(=O)N[C@@H](CC(C)C)C(=O)N[C@@H](CCCNC(=N)N)C(=O)N[C@@H](CCCNC(=N)N)C(=O)N[C@H]3CSSC[C@H](NC(=O)[C@H](CCC(=O)O)NC(=O)[C@H](CCC(=O)O)NC(=O)CNC1=O)C(=O)N[C@@H](C)C(=O)N[C@H](C(=O)N[C@H](C(=O)N1CCC[C@H]1C(=O)N[C@@H](Cc1ccc(O)cc1)C(=O)O)C(C)C)CSSC[C@H](NC(=O)[C@H](CO)NC(=O)[C@H](CC(C)C)NC(=O)[C@H](CCC(=O)O)NC3=O)C(=O)N[C@@H](CCCNC(=N)N)C(=O)N[C@@H](CO)C(=O)N[C@@H](CC(C)C)C(=O)NCC(=O)N[C@@H](CC(C)C)C(=O)N[C@@H](CC(C)C)C(=O)NCC(=O)N[C@@H](CCCCN)C(=O)N2 (H-AFCNLRRCELSCRSLGLLGKCIGEECACVPY-OH; disulfide 3-21, 8-26, 12-28) |
| < 39 | 40 | CC[C@H](C)[C@@H]1NC(=O)[C@@H]2CSSC[C@H](NC(=O)[C@H](Cc3ccccc3)NC(=O)[C@H](C)N)C(=O)N[C@@H](CC(N)=O)C(=O)N[C@@H](CC(C)C)C(=O)N[C@@H](CCCNC(=N)N)C(=O)N[C@@H](CCCNC(=N)N)C(=O)N[C@H]3CSSC[C@H](NC(=O)[C@H](C)NC(=O)[C@H](CCC(=O)O)NC(=O)CNC1=O)C(=O)N[C@@H](CCCCN)C(=O)N[C@H](C(=O)N[C@H](C(=O)N1CCC[C@H]1C(=O)N[C@@H](Cc1ccc(O)cc1)C(=O)O)C(C)C)CSSC[C@H](NC(=O)[C@H](CO)NC(=O)[C@H](CC(C)C)NC(=O)[C@H](CCC(=O)O)NC3=O)C(=O)N[C@@H](CCCNC(=N)N)C(=O)N[C@@H](CO)C(=O)N[C@@H](CC(C)C)C(=O)NCC(=O)N[C@@H](CC(C)C)C(=O)N[C@@H](CC(C)C)C(=O)NCC(=O)N[C@@H](CCCCN)C(=O)N2 (H-AFCNLRRCELSCRSLGLLGKCIGEACKCVPY-OH; disulfide 3-21, 8-26, 12-28) |

— ChEMBL document CHEMBL4725389, “Novel Blocker of Onco SK3 Channels Derived from Scorpion Toxin Tamapin and Active against Migration of Cancer Cells” (ACS Med Chem Lett, 2020)
